The source of these data is patent publication US5468772A, “Tripterinin compound and method” (Pharmagenesis, Inc., priority 1993, dated 1995).

What all share (assay type): cell-based
Data set [1] has as its system cultured human PBLs and mouse thymocytes. Put plainly: Cytotoxicity, trypan blue vital dye staining. The following applies: up to 10 μg/ml. The procedure:
Potential cytotoxicity of tripterinin was assessed by measurement of the effect of the compound on reduction of MTT (3-[4,5-Dimethylthiazol-2-yl]-2,5-diphenyltetrazolium bromide) by cultured cells, an index of cellular respiration and a sensitive assay for the detection of cytotoxicity (Green, et al.). Toxicity was evaluated in vitro in human PBLs and in mouse thymocytes, as detailed in Example 7. Sodium azide was used as a cytotoxic control. Cytotoxicity was also assessed using the standard method of trypan blue dye staining.
Cytotoxicity was assessed in cultured human PBLs and mouse thymocytes. A stock solution of MTT (Sigma), 5 mg MTT/ml phosphate buffered saline, pH 7.4, was prepared and stored in the dark at 4° C. Following 21 hours incubation under conditions identical to those above, 25 μl of MTT solution was added to each culture well. After an additional 3 hour incubation, the experiment was terminated by addition of a solution of 10% sodium dodecyl sulfate in 0.01N HCl. Following overnight incubation at 37° C. (to solubilize the formazan crystals, the MTT reduction product), optical density was determined at 570-650 nm in a Molecular Devices microtiter plate reader. Data are expressed as the ratio of the optical density of the tripterinin treated sample to that of untreated controls. […] The standard method of trypan blue vital dye staining was also used to assess toxicity.

The test system of a further data set is mouse thymocytes. Put plainly: Inhibition of IL-1 action: IL-1 stimulated mouse thymocyte proliferation in presence of PHA. How it is done: The ability of tripterinin and tripterifordin to suppress the cell-proliferative effect of IL-1 in mouse thymocytes, an index of IL-1 action (O'Gara), was also examined. In this study, mouse thymocytes in culture were stimulated with IL-1 in the presence of phytohemagglutinin (PHA) and increasing concentrations of purified tripterinin or tripterifordin. The cells were cultured for 72 hours, and during the last four hours, incubated with tritiated thymidine. DNA synthesis was assessed by measurement of radiolabeled thymidine incorporation.
Mouse thymocytes were prepared, and the action of IL-1, which stimulates thymocyte proliferation, was measured using standard techniques (O'Gara). Three to six week old C3H/HeN mice were obtained from Simonsen Laboratories, Gilroy, Calif. and sacrificed by CO2 inhalation. Thymi were removed, separated from adherent non-thymic tissue, homogenized in Hank's balanced salt solution (Gibco) using a glass homogenizer, and centrifuged at 180×g for 10 minutes at 15° C. Following an additional wash in HBSS, the thymocytes were resuspended in RPMI 1640 tissue culture medium (Gibco) containing 50 μM 2-mercaptoethanol (Fisher), 2 mM glutamine (Gibco), 1 mM sodium pyruvate, non-essential amino acids, penicillin (100 U/ml) streptomycin (100 μg/ml), 10% heat inactivated fetal bovine serum and Phytohemagglutinin (PHA, Pharmacia, final concentration 10 μg/ml). Cells were cultured in round-bottom 96 well microtiter tissue culture plates, 6×10^5 cells per well in a volume of 100 μl. Tripterinin or tripterifordin was diluted in tissue culture medium and added to the wells in the presence and absence of IL-1 (recombinant human IL-1, R&D Systems catalog #201-LB, 0.1 ng/ml). Total volume was 150 μl per well.
Plates were incubated for 72 hours (95% air/5% CO2, 37° C.). During the last four hours of incubation, [^3 H]-thymidine (Amersham, […]) was added (0.5 μCi per well). Cells were harvested onto Whatman 934-AH glass microfiber filters and counted in a Beckman LS 6000 scintillation counter. Results were expressed as counts per minute per well.

The test system of a further data set is HT-2 cells. Description: Inhibition of IL-2 action: IL-2 stimulated HT-2 cell proliferation. How it is done: Briefly, HT-2 cells were incubated in the presence of IL2, and in the presence of increasing concentrations of tripterinin. After 20 hours incubation, tritiated thymidine was added and the incubation carried out for an additional 4 hours. Cells were harvested and counted as described for PBL proliferation. […] Half maximal inhibition occurred at about 0.1 μg/ml.
The effect of tripterinin on the action of IL-2 was assessed by measurement of the compound's ability to inhibit IL-2 stimulated growth of the IL-2 dependent cell line HT-2, a well-established biological assay of IL-2 action (O'Gara). HT-2 cells were cultured in 75 cm^2 (Corning) tissue culture flasks in RPMI 1640 medium containing 10% fetal bovine serum (Hyclone), 50 μM 2-mercaptoethanol (Fisher), 10 U/ml recombinant human IL-2 (Cetus), 20 mM HEPES, 2 mM glutamine, 100 U/ml penicillin and 100 μg/ml streptomycin. Cells were passaged every 2 days. For experiments, HT-2 cells were centrifuged at 180×g for 10 minutes, washed twice with 10 ml of IL-2 free culture medium and resuspended in RPMI 1640 medium prepared as above, except containing 5% fetal bovine serum. Final cell concentration was 1×10^4 /well. Cultures were incubated with varying concentrations of the tripterinin (95% air/5% CO2, 37° C.) for 20 hours. […] Cells were harvested and counted as described for the PBL proliferation assay.

Some results are limits rather than exact numbers.

Consider `C[C@]12CCC[C@]3(COC1=O)[C@@H]2CC[C@@]12C[C@@H](CC[C@]13O)[C@](C)(O)C2` [tripterinin], for which the figures for the “cytotoxicity (trypan blue staining)” value in data set [1] and in data set [1] (listed as Tripterinin) were “consistent with those from the MTT reduction assay” and “no significant toxicity”, respectively. Further, the “concentration at which IL-1 stimulated cell proliferation was inhibited” value in the data set on mouse thymocytes (mouse thymocytes, IL-1 with PHA, FIG. 10) is listed as “about 0.2 μg/ml”. Further, the “inhibition of IL-1 stimulated thymocyte proliferation” value in the data set with mouse thymocytes (tripterifordin 3.13 μg/ml, about 3 μg/ml, tripterinin 0.02 to 1 μg/ml) is given as “dose dependent inhibition”. The “fold inhibition of IL-2 induced DNA synthesis” value in the data set with HT-2 cells (concentration range 0 to 0.78 μg/ml) is given as greater than 10 fold. The “fold decrease in IL-2 induced HT-2 cell proliferation (thymidine incorporation)” value in the data set on HT-2 cells (tripterinin 0.4 μg/ml) is reported as “more than 10 fold”.
